# In patent US20240197666A1, “DITERPENOID COMPOUNDS THAT ACT ON PROTEIN KINASE C (PKC)” (K-Gen Therapeutics, Inc., priority 2021, published 2024):
# Like-named read-outs stand apart in the source and are kept apart here.
# Columns and labels:
# A549 cell line = assay: Proliferation of A549 (CellTiter Glo); format: cell-based; details: Homo sapiens, read-out: IC50 μM (A549 Cell Line)
# Method: (§1) The diterpenoid compounds were tested in A549, a non-small cell lung cancer cell line harboring a K-Ras activating mutation. Briefly, A549 cells at a density of 1,000 cells/well were seeded in 96-well plates and incubated at 37° C. for 24 hours. A series of different concentrations of compound stocks (500×) were prepared by 3-fold serial dilution in DMSO. These compounds were further diluted in culture media and then added to cells so that the final DMSO concentration was not exceeding 0.25%. After 96 hours of incubation, 50 μL of CellTiter Glo reagent (Promega) was added to each well and luminescence was measured after 10 minutes using EnVision (PerkinElmer). Luminescence from cells treated with DMSO alone was set as Max and % of inhibition was calculated as follows: Inhibition %=(Max-Sample value)/Max×100. Data was analyzed using XL-fit software (ID Business Solutions Ltd.) and IC50, relative IC50, and % of top inhibition was calculated. Some of the compounds in this disclosure were very potent in blocking proliferation of A549 lung cancer cells at low nM range. In addition, potency of inhibiting A549 proliferation correlated well with its binding affinity to PKCs for this series of compounds. In other words, higher affinity binders had stronger inhibitory effects on A549 proliferation. This further support the notion that activation, rather than inhibition, of certain PKC isoforms is required to block proliferation of cancer cells, some of which may harbor K-Ras mutations. This is in sharp contrast to previous literature and common belief that inhibition of PKC is necessary to block cancer cell growth (Kang, 2014, New Journal of Science, 2014:1-36). Data presented here is in agreement with recent findings that many loss-of-function but not gain-of-function mutations of PKC isoforms have been identified in many human cancers (Antal et al., 2015, Cell, 160:489-502).
# C1b domain of human PKCε = biological target: T1, C1b domain of human PKCε (Homo sapiens, UniProt Q02156); assay: biochemical; format: binding; details: 3H-PDBu competition
# T1 construct: Genes encoding C1b domains of human PKCα, δ, ε, θ, and PKD1 (PKCμ) were synthesized; made in house; host or cells: E. coli BL21(DE3)
# T1 sequence (Q02156 242-292 limits assumed): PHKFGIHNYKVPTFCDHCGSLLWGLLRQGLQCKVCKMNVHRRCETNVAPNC
# Method: (§2) Compounds described in this disclosure were tested for binding affinity to C1b domain of PKC isoforms. Compound binding affinity to C1b domain of PKC isoforms was derived from competitive binding assay using radioactive tracer ^3H-PDBu and recombinant GST-C1b or full-length of human PKC proteins based on modified procedures from Methods in Molecular Biology, vol.
# (§3) Genes encoding C1b domains of human PKCα, δ, ε, θ, and PKD1 (PKCμ) were synthesized and inserted into pGEX-2TK or pGEX-4T1 vectors for expression and production of GST-C1b proteins in E. coli BL21(DE3) via IPTG induction. The target proteins were purified by glutathione sepharose 4B and followed by ion exchange chromatography if needed to achieve purity >70%. Aliquots of the purified proteins were stored at −80 degree for binding assay (storage buffer: 20 mM Tris pH 8.0, 200 mM NaCl, 10% glycerol, 1 mM DTT).
# (§4) The plate was incubated at 37° C. on a shaker at 300 rpm for 10 minutes and then put on ice for 20 minutes. […] The bottom of the filter plate was sealed and 50 μL of MicroScint-20 (PerkinElmer) cocktail was added to each well. ^3H-PDBu trapped in each well was counted using PerkinElmer MicroBeta2 Reader. Data were analyzed using GraphPad Prism5 with the model “log(inhibitor) vs. response-variable slope” to fit the IC50, and then IC50 was transformed to Ki using Cheng-Prusoff equation: Ki=IC50/(1+added radio ligand/Kd). Kd is the binding affinity of each protein preparation to ^3H-PDBu, determined experimentally.
# HL-60 (Leukemia) = assay: Proliferation of HL-60; format: cell-based
# Method: as §1
# (§5) The compounds in this disclosure were tested for their potency in blocking proliferation of a few other cancer cells lines, including K-Ras mutant pancreatic cell lines Panc2.13 and KP-4, leukemia cell line HL-60, and lymphoma cell lines Namalwa and Mino. Similar procedures as in Example 67 were followed. Initial cell numbers seeded in 96-well plates were different for different cell lines: 3000 cells/well for Panc2.13; 800-1000 cells/well for KP-4; 5000 cells/well for HL-60; 5000-10000 cells/well for Namalwa and Mino. A ratio of (IC50 of K101)/(IC50 of compound) (data in parenthesis in Table 5) was used to normalize the compound potency from different assay batches to a common comparator K101.
# Namalwa (Lymphoma) = assay: Proliferation of Namalwa; format: cell-based; details: for IC50: read-out: IC50 Namalwa (Lymphoma)
# Method: as §1, §5
# [1] = test system: NFκB-driven transcription in HeLa-NFκB luciferase reporter cell line; assay: NFκB luciferase reporter assay; details: Homo sapiens, HeLa, 16 h, read-out: NFκB-luc HeLa cells EC50 (μM)
# Mino (Lymphoma) = assay: Proliferation of Mino; format: cell-based
# Method: as §1, §5
# [2] = biological target: T2, C1b domain of human PKD1 (PKCμ) (Homo sapiens, UniProt Q15139); assay: Competitive 3H-PDBu binding assay, C1b domain of PKD1 (PKCμ); details: 3H-PDBu competition
# T2 construct: Genes encoding C1b domains of human PKCα, δ, ε, θ, and PKD1 (PKCμ) were synthesized; made in house; host or cells: E. coli BL21(DE3)
# T2 sequence (Q15139 270-320 limits assumed): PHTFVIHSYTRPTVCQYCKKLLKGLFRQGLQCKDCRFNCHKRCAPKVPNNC
# Method: as §2, §3, §4
# C1b domain of human PKCδ = biological target: T3, C1b domain of human PKCδ (Homo sapiens, UniProt Q05655); assay: biochemical; format: binding; details: 3H-PDBu competition
# T3 construct: Genes encoding C1b domains of human PKCα, δ, ε, θ, and PKD1 (PKCμ) were synthesized; made in house; host or cells: E. coli BL21(DE3)
# T3 sequence (Q05655 230-280 limits assumed): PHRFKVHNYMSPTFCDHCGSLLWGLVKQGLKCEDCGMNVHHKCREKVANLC
# Method: as §2, §3, §4
# Hela cells = assay: In vitro scratch wound healing assay; format: cell-based; details: 24h
# Method: Scratch wound healing assay creates a gap by scratching a confluent monolayer of cells to mimic a wound and then measures the ability of cells to fill up the gap (wound) in the presence of DMSO or test compounds. 1.2-1.5×10^5 Hela cells in 1 mL media RPMI-1640 with 10% FBS were seeded in 24-well plates. Cells were starved for overnight in the same media without FBS when cells became confluent. After starvation, a scratch was made in the middle of the well and the plates were washed three times to remove detached cells. DMSO or different concentrations of compounds were diluted and added to the cells. The assay plates were put into Incucyte S3 and scanned with 4× scanner setting regularly. The imaging results were exported and the wound area was analyzed by ImageJ. Wound healing or closure was calculated by the following formula: wound healing %=(wound area at 0h−wound area at 24h)/wound area 0h*100%. Relative wound healing was calculated by dividing wound healing % of compound treatment to that of DMSO*100%.
SMILES,"IC50 (A549 cell line; A549, 96 h) [µM]",Ki [2] [nM],also measured
CC1=C[C@H]2[C@@]3(O)[C@H](C)C[C@]4(OC(=O)Cc5ccccc5)[C@H]([C@@H]3C=C(CO)C[C@]2(O)C1=O)C4(C)C,–,–,"IC50 (A549 cell line; A549, 96 hours, CellTiter Glo): 0.03 to 0.06 µM; Ki (C1b domain of human PKCε): 10 to 30 nM; ratio (IC50 of K101)/(IC50 of compound) HL-60 (HL-60 (Leukemia)): 18; IC50 (HL-60 (Leukemia); Homo sapiens, HL-60; read-out: IC50 HL-60 (Leukemia)): 10 to 30 nM; ratio (IC50 of K101)/(IC50 of compound) Namalwa (Namalwa (Lymphoma)): 3.29; IC50 (Namalwa (Lymphoma)): 10 to 30 nM; EC50 [1]: 0.03 to 0.06 µM; ratio (IC50 of K101)/(IC50 of compound) Mino (Mino (Lymphoma)): 15.6; IC50 (Mino (Lymphoma); Homo sapiens, MINO; read-out: IC50 Mino (Lymphoma)): 1 to 10 nM"
CC1=C[C@H]2[C@@]3(O)[C@H](C)C[C@]4(OC(=O)CC5CC6(CNC6)C5)[C@H]([C@@H]3C=C(CO)C[C@]2(O)C1=O)C4(C)C,> 30,10 to 30,–
CC1=C[C@H]2[C@@]3(O)[C@H](C)C[C@]4(OC(=O)CCc5scnc5C)[C@H]([C@@H]3C=C(CO)C[C@]2(O)C1=O)C4(C)C,0.2 to 0.6,10 to 30,–
CC1=C[C@H]2[C@@]3(O)[C@H](C)C[C@]4(OC(=O)CCCCCCCCCCCC(=O)O)[C@H]([C@@H]3C=C(CO)C[C@]2(O)C1=O)C4(C)C,10 to 30,60 to 100,–
CSC[C@H](N)C(=O)O[C@@]12C[C@@H](C)[C@@]3(O)[C@@H](C=C(CO)C[C@]4(O)C(=O)C(C)=C[C@@H]34)[C@@H]1C2(C)C,5 to 10,60 to 100,–
CC1=C[C@H]2[C@@]3(O)[C@H](C)C[C@]4(OC(=O)[C@@H](N)Cc5c[nH]c6ccccc56)[C@H]([C@@H]3C=C(CO)C[C@]2(O)C1=O)C4(C)C,10 to 30,–,Ki (C1b domain of human PKCδ): 10 to 30 nM
CC1=C[C@H]2[C@@]3(O)[C@H](C)C[C@]4(OC(=O)[C@H](N)Cc5c[nH]c6ccccc56)[C@H]([C@@H]3C=C(CO)C[C@]2(O)C1=O)C4(C)C,10 to 30,10 to 30,–
CC1=C[C@H]2[C@@]3(O)[C@H](C)C[C@]4(OC(=O)C[C@H](N)c5ccccc5)[C@H]([C@@H]3C=C(CO)C[C@]2(O)C1=O)C4(C)C,1 to 2,10 to 30,–
CC1=C[C@H]2[C@@]3(O)[C@H](C)C[C@]4(OC(=O)C[C@@H](N)Cc5ccccc5)[C@H]([C@@H]3C=C(CO)C[C@]2(O)C1=O)C4(C)C,1 to 2,10 to 30,–
CC1=C[C@H]2[C@@]3(O)[C@H](C)C[C@]4(OC(=O)[C@@H](N)C(C)(C)c5ccc(C(F)(F)F)cc5)[C@H]([C@@H]3C=C(CO)C[C@]2(O)C1=O)C4(C)C,0.03 to 0.06,–,"Ki (C1b domain of human PKCε): 10 to 30 nM; ratio (IC50 of K101)/(IC50 of compound) HL-60 (HL-60 (Leukemia)): 12; IC50 (HL-60 (Leukemia); Homo sapiens, HL-60, read-out: IC50 HL-60 (Leukemia)): 10 to 30 nM; ratio (IC50 of K101)/(IC50 of compound) Namalwa (Namalwa (Lymphoma)): 3.5; IC50 (Namalwa (Lymphoma)): 10 to 30 nM; EC50 [1]: 0.06 to 0.1 µM; ratio (IC50 of K101)/(IC50 of compound) Mino (Mino (Lymphoma)): 15.7; IC50 (Mino (Lymphoma); Homo sapiens, MINO, read-out: IC50 Mino (Lymphoma)): 1 to 10 nM; Relative wound healing to control (%) (Hela cells; 20 nM): 213%; Relative wound healing to control (%) (Hela cells; 60 nM): 134%; Relative wound healing to control (%) (Hela cells; 200 nM): 201%"
CC1=C[C@H]2[C@@]3(O)[C@H](C)C[C@]4(OC(=O)C[C@@H](N)CCc5ccccc5)[C@H]([C@@H]3C=C(CO)C[C@]2(O)C1=O)C4(C)C,0.6 to 1,–,Ki (C1b domain of human PKCδ): 10 to 30 nM
CC1=C[C@H]2[C@@]3(O)[C@H](C)C[C@]4(OC(=O)[C@H](N)CCCc5ccccc5)[C@H]([C@@H]3C=C(CO)C[C@]2(O)C1=O)C4(C)C,0.2 to 0.6,10 to 30,–
CC1=C[C@H]2[C@@]3(O)[C@H](C)C[C@]4(OC(=O)[C@@H](O)Cc5ccccc5)[C@H]([C@@H]3C=C(CO)C[C@]2(O)C1=O)C4(C)C,0.2 to 0.6,10 to 30,–
CC1=C[C@H]2[C@@]3(O)[C@H](C)C[C@]4(OC(=O)[C@H](N)CCc5ccc(C(F)(F)F)cc5)[C@H]([C@@H]3C=C(CO)C[C@]2(O)C1=O)C4(C)C,0.2 to 0.6,10 to 30,–
CC1=C[C@H]2[C@@]3(O)[C@H](C)C[C@]4(OC(=O)C[C@H](N)Cc5ccccc5)[C@H]([C@@H]3C=C(CO)C[C@]2(O)C1=O)C4(C)C,1 to 2,–,Ki (C1b domain of human PKCδ): 10 to 30 nM
CC1=C[C@H]2[C@@]3(O)[C@H](C)C[C@]4(OC(=O)[C@@H](N)CCCCCCCCc5ccccc5)[C@H]([C@@H]3C=C(CO)C[C@]2(O)C1=O)C4(C)C,0.001 to 0.01,–,Ki (C1b domain of human PKCδ): 10 to 30 nM
CN[C@@H](CC1CCCCC1)C(=O)O[C@@]12C[C@@H](C)[C@@]3(O)[C@@H](C=C(CO)C[C@]4(O)C(=O)C(C)=C[C@@H]34)[C@@H]1C2(C)C,0.2 to 0.6,–,Ki (C1b domain of human PKCδ): 10 to 30 nM
